From patent publication US20050136444A1 (priority 2003, published 2005) come the findings set out here.

One assay addresses T1, NPFF2 (Homo sapiens, UniProt Q9Y5X5).
T1 construct: expressed in transfected cells; host or cells: NIH3T3
The experiment in a line: Receptor Selection and Amplification Technology (R-SAT) functional assay, NPFF2. The assay is classed as cell-based. To be noted: R-SAT, Table 1; for Emax: Efficacy is relative to endogenous ligand, read-out: NPFF2 % Efficacy; for EC50: NA = No activity detectable at the highest dose tested (20 μM), read-out: NPFF2 pEC50 (converted). As for the experimental part:
(§1) Briefly, NIH3T3 cells were grown in 96 well tissue culture plates to 70-80% confluence. Cells were transfected for 16-20 h h with plasmid DNAs using Polyfect (Qiagen Inc.) as per manufacturer's protocols. R-SAT's were generally performed with 40 ng/well of receptor and 20 ng/well of β-galactosidase plasmid DNA. All receptor and G-protein constructs used were in the pSI-derived mammalian expression vector (Promega Inc) as described previously. […] For large-scale transfections, cells were transfected for 16-20 h, then trypsinized and frozen in DMSO. Frozen cells were later thawed, plated at ˜20,000 cells per well of a 96 half-area well plate that contained drug. With both methods, cells were then grown in a humidified atmosphere with 5% ambient CO2 for five days. Media was then removed from the plates and marker gene activity was measured by the addition of the β-galactosidase substrate o-nitrophenyl β-D-galactopyranoside (ONPG, in PBS with 0.5% NP-40). The resulting colorimetric reaction was measured in a spectrophotometric plate reader (Titertek Inc.) at 420 nm. All data were analyzed using the computer program XLFit (IDBSm).
(§2) R-SAT assay was conducted as set forth in […]

The target in the next assay is NPFF1 (Homo sapiens, UniProt Q9GZQ6). The experiment in a line: Receptor Selection and Amplification Technology (R-SAT) functional assay, NPFF1. The assay is classed as cell-based. Also noted: expressed in transfected cells; host or cells: NIH3T3. To be noted: R-SAT, Table 1; for Emax: Efficacy is relative to endogenous ligand, read-out: NPFF1 % Efficacy; for EC50: NA = No activity detectable at the highest dose tested (20 μM), read-out: NPFF1 pEC50 (converted). The protocol:
as §1, §2

Counter-ions that a name gives are not always drawn.

T1 sequence (Q9Y5X5 103-522): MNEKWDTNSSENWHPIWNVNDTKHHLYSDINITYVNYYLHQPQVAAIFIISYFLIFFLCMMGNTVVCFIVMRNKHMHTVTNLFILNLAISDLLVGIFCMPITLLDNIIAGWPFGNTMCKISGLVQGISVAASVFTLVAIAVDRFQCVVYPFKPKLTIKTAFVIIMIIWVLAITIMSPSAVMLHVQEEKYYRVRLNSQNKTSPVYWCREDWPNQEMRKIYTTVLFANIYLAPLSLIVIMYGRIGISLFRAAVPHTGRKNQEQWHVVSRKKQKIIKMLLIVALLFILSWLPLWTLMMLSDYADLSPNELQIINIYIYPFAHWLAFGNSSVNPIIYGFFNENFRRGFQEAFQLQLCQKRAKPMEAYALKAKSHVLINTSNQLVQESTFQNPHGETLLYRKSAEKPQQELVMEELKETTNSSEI
Chain of NPFF1 (Q9GZQ6 whole entry, species assumed): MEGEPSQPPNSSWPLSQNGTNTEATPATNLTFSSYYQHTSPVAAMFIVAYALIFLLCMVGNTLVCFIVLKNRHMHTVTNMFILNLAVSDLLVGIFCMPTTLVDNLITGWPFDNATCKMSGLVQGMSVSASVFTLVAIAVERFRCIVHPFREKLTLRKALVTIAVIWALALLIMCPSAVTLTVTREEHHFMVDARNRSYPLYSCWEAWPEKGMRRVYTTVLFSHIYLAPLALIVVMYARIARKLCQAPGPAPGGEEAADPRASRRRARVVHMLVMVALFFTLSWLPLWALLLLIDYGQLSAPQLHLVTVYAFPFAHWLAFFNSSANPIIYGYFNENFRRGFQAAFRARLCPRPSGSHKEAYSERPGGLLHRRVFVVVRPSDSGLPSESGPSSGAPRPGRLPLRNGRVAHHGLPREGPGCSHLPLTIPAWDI

Take `CCOCCOc1ccc(/C=N/NC(=N)N)cc1Cl` [Compound 2054, 1-[3-Chloro-4-(2-ethoxy-ethoxy)benzylideneamino])guanidine Acetate]: on NPFF2, the Emax came to 96% and the EC50 was 10000 nM. For the same molecule, on NPFF1, the Emax came out at 21%.
Regarding `CCC(=NNC(=N)N)c1ccc(Cl)c(Cl)c1` [Compound 2056, 1-(3,4-Dichlorophenyl)-1-(propylideneaminoguanidine) Hydrochloride], the values for the Emax at NPFF2 and at NPFF1 were 73% and 6%, respectively. Also, the EC50 on NPFF2 was 501 nM.
For `N=C(N)NN=Cc1cccc(-c2ccccc2C(F)(F)F)c1` [Compound 2058, 1-[3-(2-Trifluoromethylphenyl)benzylideneamino]guanidine Hydrochloride], at NPFF2, the Emax came out at 60% and the EC50 is 501 nM. Also, on NPFF1, the Emax came to 25% and the EC50 was 1000 nM.
Consider `COc1cc(Cl)cc(C=NNC(=N)N)c1OC` [Compound 2059, 1-(5-Chloro-2,3-dimethoxybenzylideneamino)guanidine Hydrochloride], for which, on NPFF2, the Emax amounted to 79% and the EC50 was 5010 nM. At NPFF1, the Emax was 31% and the EC50 was 10000 nM.
For the molecule `N=C(N)NN=Cc1ccc(C(F)(F)F)cc1F` [Compound 2060, 1-[2-Fluoro-4-(trifluoromethyl)benzylideneamino]guanidine Hydrochloride], at NPFF2, the Emax came out at 48% and the EC50 is 3980 nM. On NPFF1, the Emax was 26% and the EC50 was 3980 nM.
In the case of `N=C(N)NN=Cc1ccc(C(F)(F)F)c(F)c1` [Compound 2063, 1-[3-Fluoro-4-(trifluoromethyl)benzylideneamino]guanidine Hydrochloride], at NPFF2, the Emax was 78% and the EC50 was 2510 nM. At NPFF1, the Emax amounted to 36% and the EC50 was 3160 nM.
`N=C(N)NN=Cc1cccc(C(F)(F)F)c1F` [Compound 2065, 1-[2-Fluoro-3-(trifluoromethyl)benzylideneamino]guanidine Hydrochloride]: the Emax came out at 45% at NPFF2 and 9% on NPFF1. The EC50 at NPFF2 was 3160 nM.
In the same order, the values of `N=C(N)NN=Cc1ccc(F)c(C(F)(F)F)c1` [Compound 2068, 1-[4-Fluoro-3-(trifluoromethyl)benzylideneamino]guanidine Hydrochloride] are 61%, 13% and 1000 nM.
With `N=C(N)NN=Cc1cc(C(F)(F)F)ccc1Cl` [Compound 2069, 1-[2-Chloro-5-(trifluoromethyl)benzylideneamino]guanidine Hydrochloride], at NPFF2, the Emax is 40% and the EC50 was 3160 nM. Further, the Emax at NPFF1 is 8%.
In the same order, the values of `N=C(N)NN=Cc1ccc(F)c2ccccc12` [Compound 2072, 1-[(4-Fluoro-1-naphthalen-1-yl)methylideneamino]guanidine Hydrochloride] are 50%, 2000 nM and 11%.
For `COc1ccc(C=NNC(=N)N)cc1C(F)(F)F` [Compound 2073, 1-[4-Methoxy-3-(trifluoromethyl)benzylideneamino]guanidine Hydrochloride], in that order: 51%, 1580 nM and 13%.
Take `COc1ccc(C(F)(F)F)cc1C=NNC(=N)N` [Compound 2074, 1-[2-Methoxy-5-(trifluoromethyl)benzylideneamino]guanidine Hydrochloride]: at NPFF2, the Emax was found to be 77% and the EC50 is 2510 nM. At NPFF1, the Emax was 19% and the EC50 is 10000 nM.
Turning to `N=C(N)NN=Cc1ccc2ccccc2c1` [Compound 2075, 1-[Naphthalen-2-yl-methylideneamino]guanidine Hydrochloride], the Emax at NPFF2 was 65%; on NPFF1 it was 24%. The EC50 on NPFF2 was 2510 nM; at NPFF1, 1260 nM.
For `Cc1ccc(C=NNC(=N)N)c(C)c1` [Compound 2077, 1-[2,4-Dimethylbenzylideneamino]guanidine Hydrochloride], on NPFF2, the Emax was determined as 61% and the EC50 was 3160 nM. In addition, at NPFF1, the Emax amounted to 21% and the EC50 is 398 nM.
Regarding `COc1ccc(OC)c(C=NNC(=N)N)c1` [Compound 3005, 1-(2,5-Dimethoxybenzylideneamino)guanidine Hydrochloride], at NPFF2, the Emax came to 59% and the EC50 is 7940 nM. The Emax at NPFF1 amounted to 3%.
Take `COc1cccc(C=NNC(=N)N)c1OCc1ccccc1` [Compound 3006, 1-(2-Benzyloxy-3-methoxybenzylideneamino)guanidine Hydrochloride]: the Emax on NPFF2 worked out at 47%; at NPFF1 it was 14%. Also, the EC50 on NPFF2 was 794 nM.
In the case of `COc1ccc2ccccc2c1C=NNC(=N)N` [Compound 3007, 1-[1-(2-Methoxy-naphthalen-1-yl)methylideneamino]guanidine Hydrochloride], on NPFF2, the Emax was found to be 84% and the EC50 is 6310 nM. At NPFF1, the Emax came to 24% and the EC50 is 7940 nM.
With `CC(=NNC(=N)N)c1ccc(Cl)c(Cl)c1` [Compound 3012, 1-[1-(3,4-Dichlorophenyl)ethylideneamino]guanidine Hydrochloride], at NPFF2, the Emax stood at 63% and the EC50 is 251 nM. The Emax at NPFF1 was 0%.
Turning to `N=C(N)NN=Cc1cc2c(cc1Br)OCO2` [Compound 3015, 1-[(6-Bromobenzo[1,3]dioxol-5-yl)methylideneamino]guanidine Hydrochloride], the results for the Emax at NPFF2 and at NPFF1 were 70% and 26%, respectively. The EC50 on NPFF2 was 1260 nM; on NPFF1 it was 1000 nM.
Turning to `CC(=NNC(=N)N)c1ccc(Br)cc1` [Compound 3016, 1-[1-(4-Bromophenyl)ethylideneamino]guanidine Hydrochloride], at NPFF2, the Emax was 74% and the EC50 was 1580 nM. For the same molecule, on NPFF1, the Emax stood at 16%.
Regarding `CC(=NNC(=N)N)c1cccc(C)c1` [Compound 3017, 1-[1-(3-Methylphenyl)ethylideneamino]guanidine Hydrochloride], on NPFF2, the Emax is 80% and the EC50 was 6310 nM. In addition, on NPFF1, the Emax is 17%.
For `Cc1cccc(C=NNC(=N)N)c1` [Compound 3018, 1-(3-Methylbenzylideneamino)guanidine Hydrochloride], at NPFF2, the Emax was 54% and the EC50 is 5010 nM. The Emax on NPFF1 was found to be 13%.
For the molecule `Cc1ccc(C=NNC(=N)N)cc1C` [Compound 3019, 1-(3,4-Dimethylbenzylideneamino)guanidine Hydrochloride], on NPFF2, the Emax worked out at 86% and the EC50 is 2510 nM. Further, on NPFF1, the Emax amounted to 12%.
Turning to `CCc1ccc(C(C)=NNC(=N)N)cc1` [Compound 3020, 1-[1-(4-Ethylphenyl)ethylideneamino]guanidine Hydrochloride], on NPFF2, the Emax was 115% and the EC50 is 1260 nM. Moreover, on NPFF1, the Emax was found to be 41% and the EC50 was 3980 nM.
As for `CC(=NNC(=N)N)c1ccc(C)c(C)c1` [Compound 3021, 1-[1-(3,4-Dimethylphenyl)ethylideneamino]guanidine Hydrochloride], at NPFF2, the Emax turned out to be 70% and the EC50 is 2510 nM. On NPFF1, the Emax is 32% and the EC50 is 10000 nM.
`CCCCCc1ccc(C=NNC(=N)N)cc1` [Compound 3022, 1-(4-n-pentylbenzylideneamino)guanidine Hydrochloride]: at NPFF2, the Emax is 55% and the EC50 is 1260 nM. Further, the Emax on NPFF1 came to 13%.
Turning to `CCCCCCc1ccc(C(C)=NNC(=N)N)cc1` [Compound 3023, Hydrochloride], at NPFF2, the Emax turned out to be 22% and the EC50 is 1260 nM. In addition, at NPFF1, the Emax came out at 29% and the EC50 is 501 nM.
On to `CC(=NNC(=N)N)c1ccc2c(c1)CCCC2` [Compound 3024, 1-[1-(5,6,7,8-Tetrahydronaphthalen-2-yl)ethylideneamino]guanidine Hydrochloride], for which the values for the Emax on NPFF2 and on NPFF1 were 99% and 41%, respectively. Also, the EC50 on NPFF2 was 398 nM; on NPFF1, 1000 nM.
As for `CCc1ccc(C=NNC(=N)N)cc1` [Compound 3025, 1-(4-Ethylbenzylideneamino)guanidine Hydrochloride], at NPFF2, the Emax turned out to be 101% and the EC50 is 2000 nM. Also, on NPFF1, the Emax came out at 28% and the EC50 is 3160 nM.
For `CC(=NNC(=N)N)c1cccc(C(F)(F)F)c1` [Compound 3027, 1-{1-[3-(Trifluoromethyl)phenyl]ethylideneamino}guanidine Hydrochloride], on NPFF2, the Emax amounted to 63% and the EC50 is 1260 nM. In addition, the Emax at NPFF1 is 5%.
